Converted amounts (≈) assume the structure as drawn. Read-outs that look alike come from different tables or passages of the source.
Experiments:
[1] = test system: Clostridium perfringens; assay: microbe, parasite or virus in culture; assay type: cell-based
[2] = test system: Enterococcus; assay: microbe, parasite or virus in culture; assay type: cell-based; settings: read-out: MICs

For `Cc1cc(C(F)(F)F)ccc1NC(=O)c1cc(Cl)ccc1O` [BAB151], which MIC50 ([1]; Clostridium perfringens) is on record?
The MIC50 was 8 µg/mL (≈ 24.3 µM).

How did the MIC50 ([1]; Clostridium perfringens) turn out when `O=C(Nc1ccc(Cl)c(C(F)(F)F)c1Cl)c1cc(Cl)ccc1O` [BAB160] was run?
Its MIC50 is 8 µg/mL (≈ 20.8 µM).

Which “MIC value against Clostridium perfringens” value (“MIC value” below) ([1]; strain A3-1 (A-type)) does the source give for `Cc1c(C(=O)C=Cc2ccccc2)[n+](=O)c2ccccc2n1[O-]` [QCT, Quincetone] here?
Its value is 0.5 µg/mL (≈ 1.63 µM).

And the “MIC value” value ([1]; strain A3-2 (A-type))?
The value was at most 0.25 µg/mL.

What about the “MIC value” value ([1]; strain A57-1 (A-type)) of the same molecule?
Its value is at most 0.25 µg/mL.

And the “MIC value” value ([1]; strain B4 (B-type))?
Its value is at most 0.25 µg/mL.

What about the “MIC value” value ([1]; strain B5 (B-type)) of the same molecule?
Its value is at most 0.25 µg/mL.

What about the “MIC value” value ([1]; strain C3 (C-type)) of the same molecule?
The value was 1 µg/mL (≈ 3.26 µM).

What about the “MIC value” value ([1]; strain C8 (C-type)) of the same molecule?
The value was at most 0.25 µg/mL.

And the “MIC value” value ([1]; strain C59-1 (C-type))?
The value was at most 0.25 µg/mL.

And the “MIC value” value ([1]; strain D14B (D-type))?
Its value is at most 0.25 µg/mL.

And the “MIC value” value ([1]; strain F5-2 (F-type))?
Its value is 0.5 µg/mL (≈ 1.63 µM).

What about the “MIC value” value ([1]; strain F6-1 (F-type)) of the same molecule?
The value was 4 µg/mL (≈ 13.1 µM).

What about the “MIC value” value ([1]; strain F6-2 (F-type)) of the same molecule?
Its value is 0.5 µg/mL (≈ 1.63 µM).

And the “MIC value” value ([1]; strain F6-2-1 (F-type))?
Its value is 1 µg/mL (≈ 3.26 µM).

What about the “MIC value” value ([1]; strain F6-2-2 (F-type)) of the same molecule?
Its value is at most 0.25 µg/mL.

What about the “MIC value” value ([1]; strain F7-1 (F-type)) of the same molecule?
The value was at most 0.25 µg/mL.

And the “MIC value” value ([1]; strain F8-1 (F-type))?
The value was 0.5 µg/mL (≈ 1.63 µM).

What about the “MIC value” value ([1]; strain H12-1 (H-type)) of the same molecule?
Its value is at most 0.25 µg/mL.

What about the “MIC value” value ([1]; strain H12-2 (H-type)) of the same molecule?
Its value is at most 0.25 µg/mL.

What about the “MIC value” value ([1]; strain H13-1 (H-type)) of the same molecule?
Its value is at most 0.25 µg/mL.

And the “MIC value” value ([1]; strain H14-1 (H-type))?
Its value is at most 0.25 µg/mL.

And the “MIC value” value ([1]; strain H14-2 (H-type))?
The value was 0.5 µg/mL (≈ 1.63 µM).

And the “MIC value” value ([1]; strain H14-4 (H-type))?
Its value is at most 0.25 µg/mL.

And the “MIC value” value ([1]; strain H15-1 (H-type))?
Its value is at most 0.25 µg/mL.

And the “MIC value” value ([1]; strain H15-2 (H-type))?
Its value is at most 0.25 µg/mL.

And the “MIC value” value ([1]; strain H15-3 (H-type))?
The value was 0.5 µg/mL (≈ 1.63 µM).

And the “MIC value” value ([1]; strain H16 (H-type))?
The value was at most 0.25 µg/mL.

`C=C[C@]1(C)C[C@@H](OC(=O)CSCCN(CC)CC)[C@]2(C)[C@H](C)CC[C@]3(CCC(=O)[C@H]32)[C@@H](C)[C@@H]1O` [TIA, Tiamulin] was tested. Which MIC90 ([1]; Clostridium perfringens) did it give?
The MIC90 was 8 µg/mL (≈ 16.2 µM).

And the MIC50 ([1]; Clostridium perfringens (n=26), unit as printed for tiamulin)?
The MIC50 was 0.5 µg/mL (≈ 1.01 µM).

What about the MIC ([1]; Clostridium perfringens, read-out: MIC value against Clostridium perfringens, strain A3-1 (A-type)) of the same molecule?
The MIC was 0.5 µg/mL (≈ 1.01 µM).

And the MIC ([1]; Clostridium perfringens, read-out: MIC value against Clostridium perfringens, strain A3-2 (A-type))?
Its MIC is 0.5 µg/mL (≈ 1.01 µM).

What about the MIC ([1]; Clostridium perfringens, read-out: MIC value against Clostridium perfringens, strain A57-1 (A-type)) of the same molecule?
Its MIC is 4 µg/mL (≈ 8.1 µM).

And the MIC ([1]; Clostridium perfringens, read-out: MIC value against Clostridium perfringens, strain B4 (B-type))?
Its MIC is 4 µg/mL (≈ 8.1 µM).

And the MIC ([1]; Clostridium perfringens, read-out: MIC value against Clostridium perfringens, strain B5 (B-type))?
Its MIC is 0.5 µg/mL (≈ 1.01 µM).

And the MIC ([1]; Clostridium perfringens, read-out: MIC value against Clostridium perfringens, strain C3 (C-type))?
Its MIC is 8 µg/mL (≈ 16.2 µM).

And the MIC ([1]; Clostridium perfringens, read-out: MIC value against Clostridium perfringens, strain C8 (C-type))?
Its MIC is 0.5 µg/mL (≈ 1.01 µM).

And the MIC ([1]; Clostridium perfringens, read-out: MIC value against Clostridium perfringens, strain C59-1 (C-type))?
Its MIC is at most 0.25 µg/mL.

And the MIC ([1]; Clostridium perfringens, read-out: MIC value against Clostridium perfringens, strain D14B (D-type))?
The MIC was 8 µg/mL (≈ 16.2 µM).

What about the MIC ([1]; Clostridium perfringens, read-out: MIC value against Clostridium perfringens, strain F5-2 (F-type)) of the same molecule?
The MIC was 0.5 µg/mL (≈ 1.01 µM).

What about the MIC ([1]; Clostridium perfringens, read-out: MIC value against Clostridium perfringens, strain F6-1 (F-type)) of the same molecule?
The MIC was 0.5 µg/mL (≈ 1.01 µM).

And the MIC ([1]; Clostridium perfringens, read-out: MIC value against Clostridium perfringens, strain F6-2 (F-type))?
The MIC was 0.5 µg/mL (≈ 1.01 µM).

What about the MIC ([1]; Clostridium perfringens, read-out: MIC value against Clostridium perfringens, strain F6-2-1 (F-type)) of the same molecule?
Its MIC is 0.5 µg/mL (≈ 1.01 µM).

And the MIC ([1]; Clostridium perfringens, read-out: MIC value against Clostridium perfringens, strain F6-2-2 (F-type))?
Its MIC is 0.5 µg/mL (≈ 1.01 µM).

What about the MIC ([1]; Clostridium perfringens, read-out: MIC value against Clostridium perfringens, strain F7-1 (F-type)) of the same molecule?
The MIC was 4 µg/mL (≈ 8.1 µM).

What about the MIC ([1]; Clostridium perfringens, read-out: MIC value against Clostridium perfringens, strain F8-1 (F-type)) of the same molecule?
The MIC was 4 µg/mL (≈ 8.1 µM).

And the MIC ([1]; Clostridium perfringens, read-out: MIC value against Clostridium perfringens, strain H12-1 (H-type))?
The MIC was 0.5 µg/mL (≈ 1.01 µM).

What about the MIC ([1]; Clostridium perfringens, read-out: MIC value against Clostridium perfringens, strain H12-2 (H-type)) of the same molecule?
Its MIC is at most 0.25 µg/mL.

What about the MIC ([1]; Clostridium perfringens, read-out: MIC value against Clostridium perfringens, strain H13-1 (H-type)) of the same molecule?
Its MIC is 4 µg/mL (≈ 8.1 µM).

What about the MIC ([1]; Clostridium perfringens, read-out: MIC value against Clostridium perfringens, strain H14-1 (H-type)) of the same molecule?
Its MIC is 8 µg/mL (≈ 16.2 µM).

What about the MIC ([1]; Clostridium perfringens, read-out: MIC value against Clostridium perfringens, strain H14-2 (H-type)) of the same molecule?
The MIC was 8 µg/mL (≈ 16.2 µM).

And the MIC ([1]; Clostridium perfringens, read-out: MIC value against Clostridium perfringens, strain H14-4 (H-type))?
Its MIC is 4 µg/mL (≈ 8.1 µM).

What about the MIC ([1]; Clostridium perfringens, read-out: MIC value against Clostridium perfringens, strain H15-1 (H-type)) of the same molecule?
The MIC was at most 0.25 µg/mL.

And the MIC ([1]; Clostridium perfringens, read-out: MIC value against Clostridium perfringens, strain H15-2 (H-type))?
Its MIC is 4 µg/mL (≈ 8.1 µM).

What about the MIC ([1]; Clostridium perfringens, read-out: MIC value against Clostridium perfringens, strain H15-3 (H-type)) of the same molecule?
The MIC was 4 µg/mL (≈ 8.1 µM).

What about the MIC ([1]; Clostridium perfringens, read-out: MIC value against Clostridium perfringens, strain H16 (H-type)) of the same molecule?
Its MIC is 4 µg/mL (≈ 8.1 µM).

Which MIC [2] does the source give for `CC(=O)NC[C@H]1CN(c2ccc(N3CCOCC3)c(F)c2)C(=O)O1` [linezolid] here?
The MIC was 1 µg/mL (≈ 2.96 µM).

Penicillin was tested. Which “MIC value” value ([1]; strain A3-1 (A-type)) did it give?
The value was 0.25 µg/mL.

What about the “MIC value” value ([1]; strain A3-2 (A-type)) of the same molecule?
Its value is 0.5 µg/mL.

What about the “MIC value” value ([1]; strain A57-1 (A-type)) of the same molecule?
Its value is 0.25 µg/mL.

And the “MIC value” value ([1]; strain B4 (B-type))?
The value was 0.5 µg/mL.

What about the “MIC value” value ([1]; strain B5 (B-type)) of the same molecule?
Its value is 0.5 µg/mL.

What about the “MIC value” value ([1]; strain C3 (C-type)) of the same molecule?
Its value is 2 µg/mL.

And the “MIC value” value ([1]; strain C8 (C-type))?
The value was 0.25 µg/mL.

What about the “MIC value” value ([1]; strain C59-1 (C-type)) of the same molecule?
The value was 0.125 µg/mL.

What about the “MIC value” value ([1]; strain D14B (D-type)) of the same molecule?
The value was 0.5 µg/mL.

What about the “MIC value” value ([1]; strain F5-2 (F-type)) of the same molecule?
The value was 0.125 µg/mL.

And the “MIC value” value ([1]; strain F6-1 (F-type))?
The value was 0.25 µg/mL.

What about the “MIC value” value ([1]; strain F6-2 (F-type)) of the same molecule?
The value was 0.125 µg/mL.

And the “MIC value” value ([1]; strain F6-2-1 (F-type))?
The value was 0.25 µg/mL.

What about the “MIC value” value ([1]; strain F6-2-2 (F-type)) of the same molecule?
Its value is 0.25 µg/mL.

What about the “MIC value” value ([1]; strain F7-1 (F-type)) of the same molecule?
Its value is 0.5 µg/mL.

And the “MIC value” value ([1]; strain F8-1 (F-type))?
The value was 0.25 µg/mL.

What about the “MIC value” value ([1]; strain H12-1 (H-type)) of the same molecule?
The value was 0.25 µg/mL.

What about the “MIC value” value ([1]; strain H12-2 (H-type)) of the same molecule?
The value was 0.125 µg/mL.

And the “MIC value” value ([1]; strain H13-1 (H-type))?
Its value is 0.0625 µg/mL.

And the “MIC value” value ([1]; strain H14-1 (H-type))?
The value was 0.25 µg/mL.

What about the “MIC value” value ([1]; strain H14-2 (H-type)) of the same molecule?
Its value is 1 µg/mL.

And the “MIC value” value ([1]; strain H14-4 (H-type))?
Its value is 0.125 µg/mL.

What about the “MIC value” value ([1]; strain H15-1 (H-type)) of the same molecule?
The value was 0.25 µg/mL.

What about the “MIC value” value ([1]; strain H15-2 (H-type)) of the same molecule?
The value was 0.25 µg/mL.

What about the “MIC value” value ([1]; strain H15-3 (H-type)) of the same molecule?
Its value is 0.25 µg/mL.

What about the “MIC value” value ([1]; strain H16 (H-type)) of the same molecule?
Its value is 0.125 µg/mL.

From patent publication US12435031B2, “Compound with broad-spectrum antibacterial activity and its antibacterial composition” (CHINA AGRICULTURAL UNIVERSITY, priority 2023, dated 2025)
